Measurements taken from patent publication US20180147183A1, “USE OF R-OXIRACETAM IN PHARMACEUTICAL FIELD” (Chongqing Runze Pharmaceutical Co., Ltd., priority 2015, published 2018).
Marks after values point to notes of the source that are not given here.

Tests used:
[1] = system: lithium chloride-pilocarpine epilepsy model rat; assay: Lithium chloride-pilocarpine rat epilepsy model, prophylactic administration; type: in vivo, SD rats; settings: 120 mg/kg for 7 days before modeling, 10 rats
Text: Stages: epileptic seizures evaluation are categorized by Racine Stages
Stage 0: no signs of any seizure;
Stage I: staring, head and face slightly trembling;
Stage II: head nodding or wet dog-like shaking;
Stage III: forelimb limit convulsions;
Stage IV: full-body ankylosing convulsions with a standing hind limb;
Stage V: full-body ankylosing clonic seizures with standing with fell;
Partial epilepsy seizure occurs when any one of Stage Ito Stage III appears;
Generalized epilepsy seizure occurs when Stage IV or Stage V appears;
Status epilepticus (SE) occurs when Stage IV or Stage V lasts 30 minutes.
The rat epilepsy models were treated with lithium chloride-pilocarpine and used levetiracetam as positive control. The duration of acute seizures of lithium chloride-pilocarpine epilepsy model rat was selected as the observation time, and prophylactic administration was used.
Animals were randomly divided into 4 groups, 10/group. Levetiracetam was selected as a positive control, 1.5 times of clinical dose were chosen, that is, 150 mg/kg. The clinical dose of an adult is 800 mg/times, twice daily, that is, 1600 mg/60 kg, 26.7 mg/kg. The dose of a rat is converted to 160 mg/kg according to body surface area. R-oxiracetam and levorotatory oxiracetam were selected half of the dose, that is, 80 mg/kg, and 1.5 times is 120 mg/kg. The dose was 1 ml/100 g, and the rats were treated with continuous administration for 7 days. As levetiracetam administration of 1.3 h (80 min), the plasma concentration peak, so we choose the last 80 minutes after the last administration of modeling. As administration of levetiracetam for 1.3 h (80 min), the plasma concentration peak was reached, so each group was selected after the last 80 minutes after the start of modeling.
Modeling method: After several previous test, the following modeling method was chosen: Animal ip. Lithium chloride 3 mmol/kg (1.5 ml/L) 127 mg/kg (12.7 mg/ml, 1 ml/100 g body weight), 24 h, 37.5 mg/kg pilocarpine three times ip. mg/kg (2.5 mg/ml, 0.5 ml/100 g body weight) at intervals of 10 minutes. […]

[2] = system: Pentetrazol (PTZ) ignited rat epilepsy model; assay: Pentetrazol (PTZ)-ignited rat epilepsy model; type: in vivo, SD rats; settings: for mortality rate / Numbers of deaths (Number): 10 days
Description: Rats were injected intraperitoneally with PTZ at a dose of 35 mg/kg (7 mg/ml, 0.5 ml/100 g body weight) for sub-convulsions three times weekly. The animals are weighed before each ip, and observed for behavioral changes after ip. within 1-2 h. Behavioral scoring was carried out according to the revised Racine score. Three consecutive occurrences of seizures of stage IV and above indicate successful ignition.
The animals successfully ignited were chosen to be grouped. The animals were randomly divided into 4 groups, 8-10/group. […] 3 times of clinical dose were chosen, that is, 500 mg/kg. […] The dosage is 1 ml/100 g, continuous intragastrical administration of 10 days. Specific dose settings are as follows:
PTZ 35 mg/kg. The animals are observed for behavioral changes within 2 h. Behavioral scoring was carried out according to the revised Racine score, continuous administration for 10 days, grading standards as mentioned above.
The seizures were recorded daily ip PTZ within 2 h. The seizure levels, latencies, mortality were recorded, and compared with the model control group.

NC(=O)CN1C[C@H](O)CC1=O [R-oxiracetam, (R)-4-hydroxy-2-oxo-1-pyrrolidineacetamide]
Latency Stage I [1]: 19.6 ± 4.4 min | Latency Stage II [1]: 34.7 ± 15.2 min | Latency Stage III [1]: 40.2 ± 12.1 min | Latency Stage IV [1]: 35.0 ± 2.8 min | Latency Stage V [1]: 38.0 ± 2.8 min | Number of Deaths [1]: 1 | Number of SE Animals [1]: 2 | Number of seizures Stage I [1]: 2.3 ± 1.2 times | Number of seizures Stage II [1]: 6.8 ± 3.7 times | Number of seizures Stage III [1]: 6.4 ± 3.6 times | Occurrence rate Stage I [1]: 10% | Occurrence rate Stage II [1]: 10% | Occurrence rate Stage III [1]: 5% | Occurrence rate Stage IV [1]: 2* % | Occurrence rate Stage V [1]: 2% | duration Stage IV [1]: 10.0 ± 1.4 min | duration Stage V [1]: 26.5 ± 0.7 min | number of animals having stage IV ([1]; P<0.05 vs model control): 20% | mortality rate ([1]; within 1 to 7 days after modeling): 10% | Seizure latency (X ± SD) ([2]; High-dose 360 mg/kg daily, D1): 3.83 ± 1.17 m | occurrence rates of stage IV or above seizures ([2]; High-dose 360 mg/kg daily, D1): 4/6 (66.7) % | Seizure latency (X ± SD) ([2]; High-dose 360 mg/kg daily, D2): 5.00 ± 0.89 m | occurrence rates of stage IV or above seizures ([2]; High-dose 360 mg/kg daily, D2): 3/6(50.0) % | Seizure latency (X ± SD) ([2]; High-dose 360 mg/kg daily, D3): 6.17 ± 1.17 m | occurrence rates of stage IV or above seizures ([2]; High-dose 360 mg/kg daily, D3): 3/6 (50.0) % | Seizure latency (X ± SD) ([2]; High-dose 360 mg/kg daily, D4): 6.50 ± 1.05 m | occurrence rates of stage IV or above seizures ([2]; High-dose 360 mg/kg daily, D4): 2/6 (33.3) % | Seizure latency (X ± SD) ([2]; High-dose 360 mg/kg daily, D5): 7.17 ± 0.75 m | occurrence rates of stage IV or above seizures ([2]; High-dose 360 mg/kg daily, D5): 1/6 (16.7) % | Seizure latency (X ± SD) ([2]; High-dose 360 mg/kg daily, D6): 7.83 ± 0.75 m | occurrence rates of stage IV or above seizures ([2]; High-dose 360 mg/kg daily, D6): 1/6 (16.7) % | Seizure latency (X ± SD) ([2]; High-dose 360 mg/kg daily, D7): 8.33 ± 1.03 m | occurrence rates of stage IV or above seizures ([2]; High-dose 360 mg/kg daily, D7): 0/6** (0) % | Seizure latency (X ± SD) ([2]; High-dose 360 mg/kg daily, D8): 8.83 ± 0.98 m | occurrence rates of stage IV or above seizures ([2]; High-dose 360 mg/kg daily, D8): 0/6** (0) % | Seizure latency (X ± SD) ([2]; High-dose 360 mg/kg daily, D9): 8.83 ± 0.75 m | occurrence rates of stage IV or above seizures ([2]; High-dose 360 mg/kg daily, D9): 0/6* (0) % | Seizure latency (X ± SD) ([2]; High-dose 360 mg/kg daily, D10): 9.83 ± 0.75 m | occurrence rates of stage IV or above seizures ([2]; High-dose 360 mg/kg daily, D10): 0/6* (0) % | mortality rate ([2]; High-dose 360 mg/kg intragastric): 0% | Numbers of deaths (Number) ([2]; High-dose 360 mg/kg intragastric, 6 animals, 360 mg/kg): No animal died | Numbers of deaths (Number) ([2]; High-dose 360 mg/kg intragastric, 6 animals, listed as R-Oxiracetam, 360 mg/kg): 0 | Seizure latency (X ± SD) ([2]; Low-dose 120 mg/kg daily, D1): 3.57 ± 1.51 m | occurrence rates of stage IV or above seizures ([2]; Low-dose 120 mg/kg daily, D1): 4/7 (57.1) % | Seizure latency (X ± SD) ([2]; Low-dose 120 mg/kg daily, D2): 4.57 ± 1.72 m | occurrence rates of stage IV or above seizures ([2]; Low-dose 120 mg/kg daily, D2): 4/6(66.7) % | Seizure latency (X ± SD) ([2]; Low-dose 120 mg/kg daily, D3): 5.00 ± 1.15 m | occurrence rates of stage IV or above seizures ([2]; Low-dose 120 mg/kg daily, D3): 3/6 (50.0) % | Seizure latency (X ± SD) ([2]; Low-dose 120 mg/kg daily, D4): 4.86 ± 1.07 m | occurrence rates of stage IV or above seizures ([2]; Low-dose 120 mg/kg daily, D4): 2/6 (33.3) % | Seizure latency (X ± SD) ([2]; Low-dose 120 mg/kg daily, D5): 5.43 ± 0.98 m | occurrence rates of stage IV or above seizures ([2]; Low-dose 120 mg/kg daily, D5): 2/6 (33.3) % | Seizure latency (X ± SD) ([2]; Low-dose 120 mg/kg daily, D6): 6.29 ± 1.11 m | occurrence rates of stage IV or above seizures ([2]; Low-dose 120 mg/kg daily, D6): 2/6 (33.3) % | Seizure latency (X ± SD) ([2]; Low-dose 120 mg/kg daily, D7): 6.86 ± 1.07 m | occurrence rates of stage IV or above seizures ([2]; Low-dose 120 mg/kg daily, D7): 1/6* (16.7) % | Seizure latency (X ± SD) ([2]; Low-dose 120 mg/kg daily, D8): 7.14 ± 1.07 m | occurrence rates of stage IV or above seizures ([2]; Low-dose 120 mg/kg daily, D8): 1/6* (16.7) % | Seizure latency (X ± SD) ([2]; Low-dose 120 mg/kg daily, D9): 7.71 ± 0.76 m | occurrence rates of stage IV or above seizures ([2]; Low-dose 120 mg/kg daily, D9): 0/6* (0) % | Seizure latency (X ± SD) ([2]; Low-dose 120 mg/kg daily, D10): 8.43 ± 0.98 m | occurrence rates of stage IV or above seizures ([2]; Low-dose 120 mg/kg daily, D10): 0/6* (0) % | mortality rate ([2]; Low-dose 120 mg/kg intragastric): 14.3% | Numbers of deaths (Number) ([2]; Low-dose 120 mg/kg intragastric, 7 animals, 120 mg/kg): No animal died | Numbers of deaths (Number) ([2]; Low-dose 120 mg/kg intragastric, 7 animals, listed as R-Oxiracetam, 120 mg/kg): 1
